Assay results as given in patent US10576151B2, “Ciclopirox for use in modulation of glucose homeostasis” (UNIVERSITY OF SOUTH CAROLINA, priority 2015, dated 2020).

How the values were obtained:
pancreatic islets = experiment: Pancreatic islet numbers by histology (H&E); type: in vivo; conditions: diabetic mice treated with CPX (FIG. 8)
Source text: In Vivo Analysis of Anti-Diabetic Effect of CPX. Mice were randomly grouped. A group of C57BI/6 mice 4-5 weeks old, were fed with either a solution of 10% sucrose and a diet containing 40% kcal as a high-fat diet (HFD; Open Source Diets (New Brunswick, N.J., USA) D12451, 40% calories/fat with free access to (10%) sweetened water (sucrose) or a control chow diet containing 10% of kcal as fat (low-fat diet) and drinking water with no added sucrose (control). Mice with a glucose concentration exceeding 180 mg/dL were considered diabetic, after 2 consecutive glucose measurements. The blood glucose levels were measured using an Accu-Check blood glucose monitor (Roche, Indianapolis, Ind., USA) using blood sample collected from the tail vein. Diabetic mice were treated with either treated daily for 20 days by oral gavages with CPX (25 mg/kg) prepared in a solution (4% ethanol, 5.2% Tween 80, and 5.2% PEG 400) or vehicle control. Pancreata were preserved in 10% buffered formalin for later histological examination. Immunostaining. Pancreatic tissue samples were fixed at 10% buffered formalin, processed a defined paraffin-embedding procedure before embedding in paraffin, sectioning into 4-μm tissue sections, and stained with hematoxylin and eosin by standard methods.

BiP, GRP94 and CHOP = experiment: Western blot of ER stress markers in islets in culture; type: cell-based, mouse
Procedure: Western Blotting. The mouse islets were treated with CPX 20 μM for 24 h and lysed in RIPA buffer [50 mM Tris, pH 7.2; 150 mM NaCl; 1% sodium deoxycholate; 0.1% SDS; 1% Triton-X 100; 10 mM NaF; 1 mM Na3VO4; protease inhibitor cocktail (1:1000, Sigma, St. Louis, Mo.)] and were subjected to immunoblot analysis by standard methods. Proteins were resolved on a 10% SDS-PAGE and transferred to a nitrocellulose membrane (Bio-Rad, Hercules, Calif.). Membranes were probed overnight with GADD153 (F-168), sc-575 from Santa Cruz Biotechnology (1:50); p21 (F-5), sc-6246 from Santa Cruz Biotechnology (1:200); actin, clone C4 MAB1501 from Millipore (Billerica, Mass., USA) (1:2000); BiP antibody (cat. no. 3183) from Cell Signaling (Danvers, Mass., USA) (1:1000); GRP94 antibody (H-212), sc-11402 from Santa Cruz Biotechnology (1:500); insulin rabbit polyclonal H-86, sc-9168 from Santa Cruz Biotechnology (1:500) antibodies followed by incubation with horseradish peroxidase-conjugated (HRP) anti-mouse (1:10000), goat anti-rabbit IgG (1:10000, Santa Cruz biotechnology Inc., Santa Cruz, Calif., USA) for 1 hr. After incubation with enhanced chemiluminescence reagents (Santa Cruz biotechnology Inc.), membranes were analyzed using an Image J software for Windows.
In order to understand better how CPX operates in β cells, it was tested to determine if it affected the efficiency by which insulin is produced following glucose stimulation. […] In view of the antidiabetic activity of CPX in vivo, the inhibition of insulin release appears contradictory. […]
While modulation of insulin release by CPX constitutes a challenging mechanism by which CPX may affect ER stress, how CPX regulates insulin expression remains obscure. […] To test this hypothesis, islets were exposed to iron citrate, alone or combined with CPX, and the levels were recorded of chaperones BiP, GRP94 and CHOP, as well as of insulin.

Cc1cc(C2CCCCC2)n(O)c(=O)c1 [CPX, 6-cyclohexyl-1-hydroxy-4-methylpyridin-2(1H)-one]
islet numbers (pancreatic islets): increased significantly
ER stress induction (BiP, GRP94, CHOP) (BiP, GRP94 and CHOP; islets, iron citrate with concomitant CPX (FIG. 12A)): compromised the effects of iron citrate
levels of BiP, GRP94 and CHOP (BiP, GRP94 and CHOP; wt islets, high glucose with CPX (FIG. 11)): alleviated the levels of BiP, GRP94 and CHOP
